Results as given in PubChem BioAssay AID248 (DTP/NCI, 2004).
“And” between values parts separate entries of the source, which are not always exact repeats. Equal entries are not always repeated. Inconclusive results and toxic doses are left out. Cut-off read from the data, not from the text of the source: active = T/C of 150% or more; inactive = T/C below 125%.

System: L1210 leukemia ip in BDF1 mice, survival T/C
Experiment: NCI In Vivo Anticancer Drug Screen. Data for tumor model L1210 Leukemia (intraperitoneal) in B6D2F1 (BDF1) mice
Settings: endpoint: mean survival time, higher = longer survival
Outline: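 Read-out is survival time, reported as the treated-group measurement over the vehicle-control measurement.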

[1] = dose: 100.0 mg/kg/injection, schedule: Q04DX003 (ip), vehicle: saline with Tween-80
[2] = dose: 200.0 mg/kg/injection, schedule: Q04DX003 (ip), vehicle: saline with Tween-80
[3] = dose: 100.0 mg/kg/injection, schedule: Q04DX003 (ip), vehicle: Klucel (hydroxypropylcellulose) (HPC)
[4] = dose: 200.0 mg/kg/injection, schedule: Q04DX003 (ip), vehicle: Klucel (hydroxypropylcellulose) (HPC)
[5] = dose: 400.0 mg/kg/injection, schedule: Q04DX003 (ip), vehicle: Klucel (hydroxypropylcellulose) (HPC)
[6] = dose: 100.0 mg/kg/injection, schedule: Q04DX002 (ip), vehicle: saline with Tween-80
[7] = dose: 200.0 mg/kg/injection, schedule: Q04DX002 (ip), vehicle: saline with Tween-80
[8] = dose: 400.0 mg/kg/injection, schedule: Q04DX002 (ip), vehicle: saline with Tween-80
[9] = dose: 100.0 mg/kg/injection, schedule: Q04DX003 (ip), vehicle: saline
[10] = dose: 200.0 mg/kg/injection, schedule: Q04DX003 (ip), vehicle: saline
[11] = dose: 400.0 mg/kg/injection, schedule: Q04DX003 (ip), vehicle: saline
[12] = dose: 100.0 mg/kg/injection, schedule: Q01DX009 (ip), vehicle: Klucel (hydroxypropylcellulose) (HPC)
[13] = dose: 200.0 mg/kg/injection, schedule: Q01DX009 (ip), vehicle: Klucel (hydroxypropylcellulose) (HPC)
[14] = dose: 400.0 mg/kg/injection, schedule: Q01DX009 (ip), vehicle: Klucel (hydroxypropylcellulose) (HPC)
[15] = dose: 100.0 mg/kg/injection, schedule: Q01DX001 (ip), vehicle: saline
[16] = dose: 100.0 mg/kg/injection, schedule: Q01DX009 (ip), vehicle: saline
[17] = dose: 100.0 mg/kg/injection, schedule: Q04DX003 (ip), vehicle: acetone
[18] = dose: 200.0 mg/kg/injection, schedule: Q01DX001 (ip), vehicle: saline
[19] = dose: 200.0 mg/kg/injection, schedule: Q01DX009 (ip), vehicle: saline
[20] = dose: 200.0 mg/kg/injection, schedule: Q04DX003 (ip), vehicle: acetone
[21] = dose: 400.0 mg/kg/injection, schedule: Q01DX001 (ip), vehicle: saline
[22] = dose: 400.0 mg/kg/injection, schedule: Q04DX003 (ip), vehicle: acetone

Measured: T/C

C=C(C(N)=O)c1cc(Cl)ccc1Cl
inactive: dose: 100.0 mg/kg/injection, schedule: Q01DX009 (ip), vehicle: saline with Tween-80 96 % of control | [1] 103 % of control | dose: 200.0 mg/kg/injection, schedule: Q01DX009 (ip), vehicle: saline with Tween-80 92 % of control | [2] 101 % of control | dose: 400.0 mg/kg/injection, schedule: Q01DX009 (ip), vehicle: saline with Tween-80 92 % of control | dose: 400.0 mg/kg/injection, schedule: Q04DX003 (ip), vehicle: saline with Tween-80 94 % of control

CCn1c(=O)n(C)c(=O)n1C(=O)c1ccccc1
inactive: dose: 100.0 mg/kg/injection, schedule: Q04DX003 (ip), vehicle: carboxymethylcellulose (CMC) 102 % of control | dose: 200.0 mg/kg/injection, schedule: Q04DX003 (ip), vehicle: carboxymethylcellulose (CMC) 104 % of control | dose: 400.0 mg/kg/injection, schedule: Q04DX003 (ip), vehicle: carboxymethylcellulose (CMC) 109 % of control

O=C1CCC(c2ccccc2)=NN1
inactive: [3] 93 % of control | [4] 95 % of control | [5] 106 % of control

CC(=N\O)/C(=N/O)c1ccc(O)cc1
inactive: dose: 5.0 mg/kg/injection, schedule: Q01DX001 (ip), vehicle: saline 97 % of control | dose: 10.0 mg/kg/injection, schedule: Q01DX001 (ip), vehicle: saline 100 % of control | dose: 20.0 mg/kg/injection, schedule: Q01DX001 (ip), vehicle: saline 97 % of control

O=C(Cc1c[nH]c2ccccc12)N=Nc1c(O)[nH]c2ccccc12
inactive: dose: 100.0 mg/kg/injection, schedule: Q01DX001 (ip), vehicle: other 102 % of control | dose: 200.0 mg/kg/injection, schedule: Q01DX001 (ip), vehicle: other 101 % of control | dose: 400.0 mg/kg/injection, schedule: Q01DX001 (ip), vehicle: other 93 % of control

CC(C)(C)OP(O)(=S)OC(C)(C)C
inactive: dose: 100.0 mg/kg/injection, schedule: Q04DX002 (ip), vehicle: saline 94 % of control | dose: 200.0 mg/kg/injection, schedule: Q04DX002 (ip), vehicle: saline 113 % of control | dose: 400.0 mg/kg/injection, schedule: Q04DX002 (ip), vehicle: saline 110 % of control

N#CCCC1C(C#N)C2CC1C1C3CCC(C3)C21 (stereo not given)
inactive: dose: 100.0 mg/kg/injection, schedule: Q01DX009 (ip), vehicle: other 100 % of control | dose: 200.0 mg/kg/injection, schedule: Q01DX009 (ip), vehicle: other 101 % of control | dose: 400.0 mg/kg/injection, schedule: Q01DX009 (ip), vehicle: other 90 % of control

O=C(Nc1ccc(F)c([N+](=O)[O-])c1)Oc1cccnc1
inactive: dose: 25.0 mg/kg/injection, schedule: Q01DX009 (ip), vehicle: saline with Tween-80 97 % of control and 99 % of control | dose: 50.0 mg/kg/injection, schedule: Q01DX009 (ip), vehicle: saline with Tween-80 95 % of control and 96 % of control | dose: 100.0 mg/kg/injection, schedule: Q01DX001 (ip), vehicle: saline with Tween-80 108 % of control | [6] 95 % of control and 100 % of control | [1] 97 % of control | dose: 200.0 mg/kg/injection, schedule: Q01DX001 (ip), vehicle: saline with Tween-80 109 % of control | [7] 104 % of control and 109 % of control | [2] 100 % of control | [8] 102 % of control and 103 % of control

CCOC(=O)CC(=O)NCCc1cccc(OC)c1OC
inactive: [9] 93 % of control | [10] 90 % of control | [11] 93 % of control

CC1CCC(C(C)C)/C(=N/NC(=O)c2ccccc2)C1 (stereo not given)
inactive: [12] 98 % of control | [3] 104 % of control | [13] 93 % of control | [4] 102 % of control | [14] 86 % of control | [5] 102 % of control

Cc1c(Cl)c(N(C)S(=O)(=O)c2ccccc2)c(C)c(Cl)c1N(C)S(=O)(=O)c1ccccc1
inactive: [3] 103 % of control | [4] 96 % of control | [5] 95 % of control

CCCCCCCCC(O)CCCCC (stereo not given)
inactive: [12] 100 % of control | [3] 106 % of control | [13] 98 % of control | [4] 103 % of control | [14] 94 % of control | [5] 109 % of control

O=S(=O)(Cc1ccccc1)C1CCCC1
inactive: [15] 104 % of control | [16] 96 % of control | [17] 103 % of control | [18] 104 % of control | [19] 110 % of control | [20] 97 % of control | [21] 93 % of control | dose: 400.0 mg/kg/injection, schedule: Q01DX009 (ip), vehicle: saline 113 % of control | [22] 102 % of control

CN(C)C(=O)NC1CCc2ccc([N+](=O)[O-])cc21 (stereo not given)
inactive: [6] 97 % of control | [7] 108 % of control | [8] 119 % of control

O=C(NCCCl)n1cncn1
inactive: dose: 100.0 mg/kg/injection, schedule: Q01DX009 (ip), vehicle: acetone 100 % of control | [17] 102 % of control | dose: 200.0 mg/kg/injection, schedule: Q01DX009 (ip), vehicle: acetone 92 % of control | [20] 102 % of control | dose: 400.0 mg/kg/injection, schedule: Q01DX009 (ip), vehicle: acetone 103 % of control | [22] 102 % of control

OCC1(c2ccccc2)CCN(Cc2ccccc2)CC1
inactive: [12] 91 % of control | [3] 104 % of control | [13] 96 % of control | [4] 101 % of control | [14] 91 % of control | [5] 97 % of control

O=C(/C(=C\c1ccccc1)N1CCOCC1)c1ccc(Cl)cc1
inactive: [1] 92 % of control

COc1ccc2c(c1)c1c(C)c3cnccc3c(C)c1n2CC1CO1 (stereo not given)
inactive: dose: 4.7 mg/kg/injection, schedule: Q01DX009 (ip), vehicle: saline with Tween-80 100 % of control | dose: 9.4 mg/kg/injection, schedule: Q01DX009 (ip), vehicle: saline with Tween-80 102 % of control | dose: 18.75 mg/kg/injection, schedule: Q04DX003 (ip), vehicle: saline with Tween-80 116 % of control | dose: 37.5 mg/kg/injection, schedule: Q04DX003 (ip), vehicle: saline 120 % of control | dose: 75.0 mg/kg/injection, schedule: Q04DX003 (ip), vehicle: saline 91 % of control

C(=C\c1cccc2ccccc12)/c1ccncc1
inactive: dose: 75.0 mg/kg/injection, schedule: Q01DX001 (ip), vehicle: carboxymethylcellulose (CMC) 97 % of control | dose: 150.0 mg/kg/injection, schedule: Q01DX001 (ip), vehicle: carboxymethylcellulose (CMC) 88 % of control | dose: 300.0 mg/kg/injection, schedule: Q01DX001 (ip), vehicle: carboxymethylcellulose (CMC) 90 % of control

Cc1ccc(S(=O)(=O)N(Cc2ccc([N+](=O)[O-])cc2)c2ccccc2)cc1
inactive: dose: 100.0 mg/kg/injection, schedule: Q01DX001 (ip), vehicle: carboxymethylcellulose (CMC) 103 % of control | dose: 200.0 mg/kg/injection, schedule: Q01DX001 (ip), vehicle: carboxymethylcellulose (CMC) 105 % of control | dose: 400.0 mg/kg/injection, schedule: Q01DX001 (ip), vehicle: carboxymethylcellulose (CMC) 100 % of control

NC(Cc1ccc(O)c(I)c1)C(=O)O (stereo not given)
inactive: [16] 96 % of control | [9] 101 % of control | [19] 98 % of control | [10] 93 % of control | [11] 100 % of control

Cc1cc(Nc2ccc(N=Nc3ccc(O)c4ncccc34)cc2)nc(C)n1
inactive: [15] 102 % of control | [18] 105 % of control | [21] 103 % of control
